The numbers were not newly measured in US20180338996A1, “COMBINATION THERAPY FOR TRAUMATIC BRAIN INJURY” (UNIVERSITY OF SOUTH FLORIDA, priority 2017, published 2018), which cites them from elsewhere.

For `CCc1ccc(CCOc2ccc(CC3SC(=O)NC3=O)cc2)nc1` (centres unmarked) [PG, pioglitazone], the “adverse effects in clinical use” value was “weight gain, fluid retention, congestive heart failure, and bone fractures”.

Regarding `CN(CCOc1ccc(CC2SC(=O)NC2=O)cc1)c1ccccn1` (centres unmarked) [rosiglitazone], the “adverse effects in clinical use” value is “weight gain, fluid retention, congestive heart failure, and bone fractures”.
